Values joined by “and” are separate entries in the source; they are usually repeats but may differ in a detail not shown here. Equal values may be shown once.
What was measured:
GSK-3β [1] = target: T1, GSK-3β (Homo sapiens, UniProt P49841); assay: Kinetic study of GSK-3β inhibition, competition with ATP (ADP-Glo Kinase Assay); type: biochemical; settings: ATP 1 to 50 μM; inhibitors 5 and 10 μM; substrate 25 μM; double reciprocal plot
Protocol: Figure 2 Kinetic data for the curcumin-DEF hybrids 5 and 6. In the reaction mixture, the concentration of compounds employed is reported in the plot, the concentration of the substrate is constant (25 μM), and the concentration of ATP changes from 1 to 50 μM. Each point is the mean of two different experiments analyzed in triplicate.
Kinetic experiments were performed using the ADP-Glo Kinase Assay,[42] in which ATP concentration varied from 1 to 50 μM, the concentrations of inhibitors employed were 5 and 10 μM, while the concentration of GS2 was kept constant (25 μM). Graphs (Figure 2) report the double reciprocal plot of the data.

SH-SY5Y cells [2] = assay: Neuroprotection against Aβ1–42 oligomers, MTT assay; type: cell-based, human; settings: 5 μM for 24 h, then OAβ1–42 10 μM for 4 h
Protocol: Intracellular accumulation of soluble Aβ1–42 oligomers is responsible for neurotoxic effects, such as neuronal death, and represents a key event in AD pathogenesis.[33] […] Briefly, SH-SY5Y cells were incubated with 5 μM concentration of the selected analogues for 24 h, followed by OAβ1–42 oligomers treatment (10 μM) for 4 h (Figure 6A).
Figure 6 Effects of 4 and 5 on neurotoxicity induced by OAβ1–42 oligomers and 6-OHDA in SH-SY5Y cells. (A) Cells were incubated with 4 and 5 (5 μM, for 24 h) and then treated with OAβ1–42 (10 μM, for 4 h). (B) Cells were incubated with compounds 4 and 5 (5 μM, for 24 h), then treated with 6-OHDA (100 μM, for 2 h), and then starved in complete medium for 22 h. The neurotoxicity was evaluated by an MTT assay. Data are expressed as percentages of neurotoxicity versus cells treated with Aβ1–42 oligomers or 6-OHDA and reported as mean ± SEM of at least three independent experiments (* p < 0.05 versus cells treated with 6-OHDA at one-way ANOVA with the Dunnett post hoc test). […]
Then, cells were treated with Aβ1–42 oligomers for 4 h. The neuroprotective activity, in terms of an increase in intracellular MTT granules, was measured by an MTT assay, as previously described (see the Supporting Information for experimental details).[46]

GSK-3α/β = assay: Phosphorylation of GSK-3α/β (Ser21/9) by Western blotting; settings: SH-SY5Y, 5 μM, after 1 h of incubation
SH-SY5Y cells [3] = assay: t-BuOOH-induced intracellular ROS formation (H2DCF-DA probe); type: cell-based, human; settings: 5 μM for 24 h, then t-BuOOH 100 μM for 30 min
Text: Oxidative stress represents a remarkable pathological feature in NDDs; it is the consequence of an imbalance between the formation of reactive radical species, among others ROS, and the function of many defense antioxidant enzymes. Initially, the potential of compounds 4–7 as indirect antioxidants was investigated[31] by assessing their capability to protect from oxidative stress through prevention of ROS formation upon exposure to tert-butyl hydroperoxide (t-BuOOH). In detail, SH-SY5Y cells were first chronically treated for 24 h (the time necessary to activate the endogenous antioxidant system) with 4–7 (5 μM) and then exposed to 100 μM of t-BuOOH for 30 min; DMF (5 and 10 μM) was employed as the reference compound. Then, the intracellular ROS formation was detected by fluorescent probe 2′-7′-dichlorodihydrofluorescein diacetate (H2DCF-DA).
Figure 3 Antioxidant activity of compounds 4–7 and DMF against t-BuOOH-induced ROS formation in SH-SY5Y cells. Cells were treated with compounds 4–7 (5 μM) and DMF (5 and 10 μM) for 24 h and then with t-BuOOH (100 μM) for 30 min. At the end of treatment, the ROS formation was evaluated by probe H2DCF-DA. Results are expressed as mean ± SEM of at least three independent experiments (* p < 0.05 and ** p < 0.01 vs cells treated with t-BuOOH at one-way ANOVA with the Dunnett post hoc test).
ROS formation was evaluated by using the fluorescent probe H2DCF-DA, as previously described.[43]

Nrf2 = Nrf2 nuclear translocation by Western blotting; type: cell-based, human; settings: 5 μM; for nuclear translocation of Nrf2: 1, 3 and 6 h; for treatment time of maximum ratio between nuclear and cytosolic Nrf2 levels: 1, 3 and 6 h tested
Protocol: In light of these findings, 4 and 5 emerged as the most promising to be further studied regarding their effect on the Nrf2/ARE pathway. […] The maximum ratio between nuclear and cytosolic Nrf2 levels was detected after a 3 h treatment for both compounds, while a slight reduction was observed after 6 h.
Figure 5 Effects of compounds 4 and 5 on the Nrf2/ARE signaling pathway (A and B) and NQO1 gene expression (C) in SH-SY5Y cells. (A) Cells were treated with compounds 4 and 5 (5 μM) for different times (1, 3, and 6 h). Translocation of Nrf2 from the cytosol to the nucleus was evaluated by Western blotting. Data are expressed as a ratio between nuclear Nrf2 and cytoplasmic Nrf2 levels and reported as mean ± SEM of at least three independent experiments. (B) Cells were treated with compounds 4 and 5 (5 μM) and DMF (5 μM) for 6 h. The Nrf2/ARE binding activity was determined by an ELISA assay. Results are expressed as fold increase versus untreated cells and reported as mean ± SEM of at least three independent experiments (** p < 0.01 and * p < 0.05 versus untreated cells at the t-test). (C) Cells were treated with compounds 4 and 5 (5 μM) for different times (6, 12, and 24 h). The NQO1 expression was determined by RT-PCR. Results are expressed as the relative normalized expression and reported as mean ± SEM of at least three independent experiments (*** p < 0.001 versus untreated cells at one-way ANOVA with the Dunnett post hoc test).

GSK-3β [4] = target: T1, GSK-3β; assay: GSK-3β inhibition, luminescent kinase assay (Kinase-Glo); settings: for IC50: GSK-3β inhibition IC50 (μM) ± SEM, human recombinant enzyme, luminescence method
Protocol: A kinetic study was performed in which the concentrations of both ATP and tested compounds were varied, while the concentration of the substrate was kept constant.
GSK-3β inhibition . Kinase-Glo assays (Promega Biotech Iberica, SL) were performed in assay buffer using
black 96-well plates. In a typical assay, 10 µl (10 µM) of test compound (dissolved in DMSO at 1 mM concentration and diluted in advance in assa y buffer to the desired concentration) and 10 µL (20 ng) of
enzyme were added to each well followed by 20 µl of assay buffer containing 50 µM substrate and 2 µM ATP.
After 30 -min incu bation at 30 °C
the enzymatic reaction was stopped with 40 µL of Kinase -Glo reagent. Glow -type luminescence was recorded
after 10 min using a FLUOstar Optima (BMG Labtechnologies GmbH, Offenburg Germany) multimode reader.
The activity is proportional to th e difference in the total and consumed ATP. The inhibitory activities were
calculated on the basis of maximal activities measured in the absence of inhibitor. The IC 50 was defined as the concentration of each compound that reduces a 50 % the enzymatic activity with respect to that without
inhibitors. Five different concentrations by duplicate were used to determine the dose/response curve.

T1 sequence (P49841 whole entry): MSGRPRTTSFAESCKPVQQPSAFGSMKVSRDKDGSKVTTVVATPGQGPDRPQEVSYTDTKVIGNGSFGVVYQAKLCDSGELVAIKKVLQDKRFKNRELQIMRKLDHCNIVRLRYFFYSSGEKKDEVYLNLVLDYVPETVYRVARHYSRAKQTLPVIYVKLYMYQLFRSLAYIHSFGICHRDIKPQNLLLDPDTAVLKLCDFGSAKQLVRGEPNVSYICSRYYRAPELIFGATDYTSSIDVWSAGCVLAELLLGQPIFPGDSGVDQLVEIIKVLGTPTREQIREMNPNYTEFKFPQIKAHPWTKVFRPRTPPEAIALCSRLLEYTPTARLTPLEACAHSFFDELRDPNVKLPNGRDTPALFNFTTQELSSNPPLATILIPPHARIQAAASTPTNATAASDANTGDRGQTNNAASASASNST

Compound	mechanism of inhibition as regards competition with ATP (GSK-3β [1])	prevention of Aβ1–42 oligomers-induced cell death (SH-SY5Y cells [2])	phospho-GSK-3α/β (Ser21/9) levels (GSK-3α/β)	t-BuOOH-induced intracellular ROS formation (SH-SY5Y cells [3])	nuclear translocation of Nrf2 (Nrf2)	treatment time of maximum ratio between nuclear and cytosolic Nrf2 levels (Nrf2) [h]	IC50 (GSK-3β [4])	inhibition at 10 µM (GSK-3β [4]; read-out: GSK-3β inhibition, inhibition (%)) [%]
CCOC(=O)/C=C/C(C(=O)/C=C/c1ccc(OC)cc1)=C(O)\C=C\c1ccc(OCc2ccccc2)cc1 [Compound 5, Ethyl (2E,4Z,6E)-7-(4-(Benzyloxy)phenyl)-5-hydroxy-4-((E)-3-(4-methoxyphenyl)acryloyl)hepta-2,4,6-trienoate]	noncompetitive inhibitors of ATP binding	failed to prevent Aβ1–42 oligomers-induced cell death	increase phospho-GSK-3α/β (Ser21/9) levels	significant reduction	induce the nuclear translocation of Nrf2	3	8.4 µM and 8.39 µM	
CCOC(=O)/C=C/C(C(=O)/C=C/c1ccc(OC)cc1)=C(O)\C=C\c1ccc(OC)cc1 [Compound 4, Ethyl (2E,4Z,6E)-5-Hydroxy-7-(4-methoxyphenyl)-4-((E)-3-(4-methoxyphenyl)acryloyl)hepta-2,4,6-trienoate]		failed to prevent Aβ1–42 oligomers-induced cell death		significant reduction	induce the nuclear translocation of Nrf2	3	> 10 µM	40

Source: PMC8009478, “Novel Curcumin-Diethyl Fumarate Hybrid as a Dualistic GSK-3β Inhibitor/Nrf2 Inducer for the Treatment of Parkinson’s Disease” (ACS Chemical Neuroscience, 2020)
